Type in all cases: physicochemical
A short description of data set [1]: Experimental dielectric property measurements, Agilent 85070 Dielectric Probe. As to conditions: for Experimental Dk at 1 GHz / Experimental Loss Tangent at 1 GHZ: ambient pressure, approximately 23° C.; for Dielectric Constant (20 GHz): room temperature. As for the experimental part: “Dielectric Constant” means the dielectric constant as measured at room temperature at 20 giga hertz (GHz).
Experimental dielectric property measurements were made on all liquids using the Agilent 85070 Dielectric Probe. All measurements were made at ambient pressure and room temperature (approximately 23° C.). Prior to making measurements, the system was calibrated from 1 GHz to 20 GHz with an open circuit, a short circuit, and DI water (@22.4° C.) standard. The result of the calibration is shown in the Table 5 below for DI H2O, and is consistent with DI water at 22.4° C. The accuracy of the probe is given as: Dielectric constant, er′=er′+/−0.05|er*| with er″=er″+/−0.05|er*| and (loss=er″/er′).

Data set [2] can be described thus: Boiling point of fluoroethers. As to conditions: for Boiling point: Table 2; for Bp: Table 5.
Another data set can be described thus: Density of fluoroethers. As to conditions: Table 2.

Structures are written as SMILES. Bounds are passed on as bounds.

On to `FC(F)OCC(F)(F)C(F)(F)F` [Compound 2, 3-(difluoromethoxy)-1,1,1,2,2-pentafluoropropane], for which, in data set [1], the “Experimental Dk at 1 GHz” value was determined as 5.21, the “Experimental Loss Tangent at 1 GHZ” value amounted to 0.038 and the “Dielectric Constant (20 GHz)” value was found to be 3.4. In data set [2], this compound yielded a Boiling point of 46 °C and a Bp of 46 °C. The Density in “Density of fluoroethers” is recorded as 1.3-1.7.

Regarding `FC(F)OCC(F)(F)C(F)F` [Compound 1, 3-(difluoromethoxy)-1,1,2,2-tetrafluoropropane], in data set [1], the “Experimental Dk at 1 GHz” value is on record as 2.94, the “Experimental Loss Tangent at 1 GHZ” value came to 0.036 and the “Dielectric Constant (20 GHz)” value is reported as 4.0. In data set [2], this compound registered a Boiling point of 76 °C and a Bp of 76 °C. For the same compound, the Density in the data set “Density of fluoroethers” is given as 1.3-1.7.

As to `O` [DI Water, reference compound], in data set [1], the “Experimental Dk at 1 GHz” value stood at 79.15 and the “Experimental Loss Tangent at 1 GHZ” value is given as 0.052. The Bp in data set [2] is 100 °C.

In the case of `FC(F)OC(C(F)(F)F)C(F)(F)F` [Compound 3, 2-(difluoromethoxy)-1,1,1,3,3,3-hexafluoropropane], in data set [1], the “Dielectric Constant (20 GHz)” value is given as below 5. Moreover, in data set [2], the Boiling point is 41 °C and the Bp turned out to be 41 °C. In addition, the Density in “Density of fluoroethers” is 1.3-1.7.

Turning to `FC(F)OCC(F)(F)C(F)(F)C(F)(F)F` [Compound 4, 4-(difluoromethoxy)-1,1,1,2,2,3,3-heptafluorobutane], in data set [1], the “Experimental Dk at 1 GHz” value was determined as 4.51, the “Experimental Loss Tangent at 1 GHZ” value is 0.054 and the “Dielectric Constant (20 GHz)” value is 2.8. In data set [2], the Boiling point was determined as 69 °C and the Bp was determined as 69 °C. The Density in “Density of fluoroethers” was 1.3-1.7.

For the origin of these results see US20240279520A1, “FLUORINE SUBSTITUTED ETHERS AND COMPOSITIONS, METHODS AND USES INCLUDING SAME” (Honeywell International Inc., priority 2022, published 2024).
